Data from patent US5344841A, “Bis-(hydroxylakylamino)-anthraquinone inhibitors of protein kinase C” (Sphinx Pharmaceuticals Corporation, priority 1992, dated 1994).

What was measured:
[1] = test system: MCF-7 human breast tumor cell line; assay: Human tumor growth inhibition, 3H-thymidine incorporation, MCF-7; type: cell-based; settings: 3H-thymidine uptake; read-out: IC50 MCF-7
From the text: (§1) MCF-7 a human breast tumor cell line, and MCF-7/ADR an adriamycin resistant line of MCF-7 cells were obtained from the National Cancer Institute, Frederick, Md. NHEK a human keratinocyte cell line was obtained from Clonetic Corp., San Diego, Calif. 8226 a human myeloma cell line, 8226/MT a Mitoxantrone resistant line of 8226 cells, and 8226 ADR an adriamycin resistant line of 8226 cells were obtained from Dr. Bill Dalton, Arizona Cancer Center, Tuscon, Ariz.
(§2) Human tumor cells are trypsinized (0.05% trypsin, GIBCO), counted with a hemacytometer and seeded at a concentration of 10,000 cells/well in a 96 well microtiter plate. After allowing cells to attach to the surface overnight, the culture medium is aspirated and replaced with 100 μl of fresh medium. Test agents are diluted to determine dose response at 2× final concentration and added in quadruplicate at 100 μl/well to bring the total volume of each well to 200 μl. The microtiter plate is then incubated at 37° C. 5% CO2 overnight (18-24 hrs) before ^3 H-thymidine is added at a concentration of 0.5 μCi/well in 50 μl culture medium. The plate is incubated again for 4 hrs under the same conditions as above. Supernatant is then aspirated and 50 μl trypsin (0.05%, GIBCO) is added to each well. Cells are checked microscopically to determine detachment from surfaces, and plates are then harvested with a cell harvester (PHD, Cambridge Technology, Inc.) Filter papers corresponding to wells are placed in scintillation vials and counted to determine the amount of ^3 H-thymidine incorporated by the cells. Test agent response is compared to a positive control of cell wells with culture media only to determine the IC50. IC50 is the concentration of test compound required to inhibit fifty percent of the incorporation of ^3 H-thymidine into proliferating cells not exposed to test agent. Uptake of ^3 H-thymidine is a standard test for measuring the metabolism of cells. Cells which are actively proliferating take up ^3 H-thymidine, whereas cells that are not proliferating take up ^3 H-thymidine at much slower rates or not at all. Test agents that inhibit the uptake of ^3 H-thymidine thus slow the growth of cells.

[2] = test system: MCF-7/ADR adriamycin resistant line of MCF-7 cells; assay: Human tumor growth inhibition, 3H-thymidine incorporation, MCF-7/ADR; type: cell-based; settings: MCF-7/ADR vs MCF-7
From the text: as §1, §2

NHEK human keratinocytes = assay: Human keratinocyte inhibition, 3H-thymidine incorporation; type: cell-based
Experimental: Human tumor cells are trypsinized (0.05% trypsin, GIBCO), counted with a hemacytometer and seeded at a concentration of 10,000 cells/well in a 96 well microtiter plate. After allowing cells to attach to the surface overnight, the culture medium is aspirated and replaced with 100 μl of fresh medium. Test agents are diluted to determine dose response at 2× final concentration and added in quadruplicate at 100 μl/well to bring the total volume of each well to 200 μl. The microtiter plate is then incubated at 37° C. 5% CO2 overnight (18-24 hrs) before ^3 H-thymidine is added at a concentration of 0.5 μCi/well in 50 μl culture medium. The plate is incubated again for 4 hrs under the same conditions as above. […] Cells are checked microscopically to determine detachment from surfaces, and plates are then harvested with a cell harvester (PHD, Cambridge Technology, Inc.) Filter papers corresponding to wells are placed in scintillation vials and counted to determine the amount of ^3 H-thymidine incorporated by the cells. […]
Proliferating keratinocytes (NHEK cells purchased from Clonetics, Inc. San Diego, Calif.) in second passage were grown in Keratinocyte Growth Medium (KGM) (Clonetics, Inc.) Cells were trypsinized with 0.025% trypsin (Clonetics), counted with a hemacytometer (Scientific Products), and seeded at a concentration of 2,500 cells/well in a 96 well microtiter plate. […]

human neutrophils = assay: Neutrophil superoxide anion (O2-) release assay, PMA-stimulated; type: cell-based; settings: Homo sapiens, Neutrophil, PMA-stimulated O2- production
Experimental: Neutrophils were isolated form whole blood collected from human volunteers. All reagent materials were obtained from Sigma Chemical Company with the exception of isotonic saline (Travenol Lab., Inc. Deerfield, Ill.) and lymphocyte separation medium (Organon Teknika, Durham, N.C.). Whole blood was drawn and mixed with sodium heparin (final conc. 10 units/ml) to prevent clotting. An equal volume of dextran (3.0%) in isotonic saline was added, mixed, and allowed to settle for 30 min to bind red blood cells (RBC). The supernatant was removed, underlayered with lymphocyte separation medium and centrifuged for 40 min at 400 xg in a centrifuge (Beckman GPR, Norcross, Ga.). […] The washed pellet was resuspended in 10 ml HBSS and placed on ice before counting on a hemacytometer. The neutrophil cell concentration is adjusted to 2×10^6 cells/ml with HBSS before adding 0.8 ml cells to 12×75 mm polypropylene test tubes (Fisher Scientific). Test agents are diluted to determine dose response and added at 10×final concentration at a volume of 0.1 ml/tube in duplicate. […] Tubes are then centrifuged at 900 xg for 10 min, 0.5 ml supernatant is removed and added to 0.5 ml H2 O in a microcuvette. Optical density (OD) of cytochrome c is read in a spectrophotometer (Shimadzu) at 550 nm. The ΔOD of cytochrome c is obtained between PMA-stimulated and non-stimulated tubes, and the dose responses of the test agents are compared to the positive controls (which contain HBSS in place of test agents). PMA stimulates O2^- production which reduces cytochrome c. Reducing cytochrome c increases its absorbance, and the change in OD of cytochrome c is proportional to the amount of O2^- produced by PMA stimulation. Inhibition of the O2^- burst by test compounds of the invention is seen as a reduction in the change in optical density. Inhibition is expressed as IC50 μM and is the amount of test compound that will inhibit fifty percent of the PMA-stimulated respiratory outburst, i.e. O2^- production.

[3] = test system: MCF-7 human mammary carcinoma xenografts; assay: MCF-7 human mammary carcinoma xenografts in athymic nude mice; type: in vivo, mouse (human tumor xenograft); settings: FIG. 4
[4] = test system: MCF-7/ADR adriamycin resistant line of MCF-7 cells; assay: Human tumor growth inhibition, 3H-thymidine incorporation, MCF-7/ADR; type: cell-based; settings: NCI/ADR-RES, 3H-thymidine uptake
[5] = test system: 8226/ADR adriamycin resistant line of 8226 cells; assay: Human tumor growth inhibition, 3H-thymidine incorporation, 8226/ADR; type: cell-based; settings: 3H-thymidine uptake
[6] = test system: 8226/MT Mitoxantrone resistant line of 8226 cells; assay: Human tumor growth inhibition, 3H-thymidine incorporation, 8226/MT

CCN(CC)CC(O)CNc1ccc(NCC2CO2)c2c1C(=O)c1ccccc1C2=O (stereo not drawn) [Compound 1b-1, 1-(3-diethylamino-2-hydroxypropylamino)-4-(2,3-epoxypropylamino)-9, 10-anthracenedione]
IC50 [1]: 0.025 µM
Resistance Ratio (IC50 MCF-7/ADR to IC50 MCF-7) [2]: 2.4
IC50 (NHEK human keratinocytes): 0.04 µM
IC50 (human neutrophils): > 25 µM
median tumor weight vs control mice (in words) ([3]; at stabilization): significantly lower than the weight of the control mice
day at which tumor growth was stabilized ([3]; iv, once every four days, five injections): ~30 days
day until which median tumor weight remained stable ([3]; then tumor regrowth): ~38 days
IC50 [4]: 0.06 µM
IC50 [5]: 0.016 µM
Resistance Ratio (8226/MT) ([6]; 8226/MT vs 8226): 0.13
IC50 ([6]; Homo sapiens, read-out: IC50 8226/MT): 0.008 µM
ratio of IC50 for 8226 cells to IC50 for 8226/MT cells ([6]; text wording of ratio): 0.13
